In brackets after ≈: the same amount, converted by molar mass.
Tests used:
[1] = Cmax in rat at 1 mg/kg, po; assay type: ADME, organism-based; design: dose 1 mg/kg, route oral; settings: in vivo
[2] = Volume of distribution at steady state in rat at 0.5 mg/kg, iv; assay type: ADME, organism-based; settings: in vivo, read-out: Vdss
[3] = biological target: T1, Nuclear receptor ROR-beta (Homo sapiens, UniProt Q92753); assay: Transrepression of recombinant human GAL4-DBD fused RORbeta LBD expressed in HEK293 cells after 20 hrs by luciferase reporter gene assay; assay type: cell-based
T1 sequence (Q92753 whole entry): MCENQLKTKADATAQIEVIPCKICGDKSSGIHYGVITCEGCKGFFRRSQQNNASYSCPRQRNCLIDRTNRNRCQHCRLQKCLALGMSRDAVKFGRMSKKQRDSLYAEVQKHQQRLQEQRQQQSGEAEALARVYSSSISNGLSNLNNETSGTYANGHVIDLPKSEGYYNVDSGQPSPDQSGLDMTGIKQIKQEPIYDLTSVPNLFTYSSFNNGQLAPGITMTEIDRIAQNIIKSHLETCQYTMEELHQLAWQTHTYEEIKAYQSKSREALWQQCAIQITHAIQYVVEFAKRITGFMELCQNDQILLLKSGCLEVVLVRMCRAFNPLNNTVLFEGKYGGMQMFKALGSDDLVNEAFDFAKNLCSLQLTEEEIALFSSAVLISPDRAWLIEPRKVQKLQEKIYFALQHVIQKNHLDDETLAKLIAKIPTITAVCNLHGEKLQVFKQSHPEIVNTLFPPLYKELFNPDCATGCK

[4] = Half life in rat at 0.5 mg/kg, iv; assay type: ADME, organism-based; settings: in vivo
[5] = Solubility of the compound in KH2PO4/Na2HPO4 buffer at pH 6.8 by shake-flask method; assay type: physicochemical
[6] = AUC in rat at 0.5 mg/kg, iv; assay type: ADME, organism-based; settings: in vivo
[7] = Tmax in rat at 1 mg/kg, po; assay type: ADME, organism-based; settings: in vivo
[8] = Stability in human liver microsomes assessed as parent compound remaining after 2 hrs by LC-MS/MS analysis; assay type: ADME, microsome; settings: read-out: Stability
[9] = Solubility of the compound in NaCl/HCl buffer at pH 1.2 by shake-flask method; assay type: physicochemical
[10] = biological target: T2, Nuclear receptor ROR-gamma (Homo sapiens) (UniProt P51449); assay: (§1) Transrepression of recombinant human GAL4-DBD fused RORgammat LBD expressed in HEK293 cells after 20 hrs by luciferase reporter gene assay; assay type: cell-based
T2 sequence (whole entry): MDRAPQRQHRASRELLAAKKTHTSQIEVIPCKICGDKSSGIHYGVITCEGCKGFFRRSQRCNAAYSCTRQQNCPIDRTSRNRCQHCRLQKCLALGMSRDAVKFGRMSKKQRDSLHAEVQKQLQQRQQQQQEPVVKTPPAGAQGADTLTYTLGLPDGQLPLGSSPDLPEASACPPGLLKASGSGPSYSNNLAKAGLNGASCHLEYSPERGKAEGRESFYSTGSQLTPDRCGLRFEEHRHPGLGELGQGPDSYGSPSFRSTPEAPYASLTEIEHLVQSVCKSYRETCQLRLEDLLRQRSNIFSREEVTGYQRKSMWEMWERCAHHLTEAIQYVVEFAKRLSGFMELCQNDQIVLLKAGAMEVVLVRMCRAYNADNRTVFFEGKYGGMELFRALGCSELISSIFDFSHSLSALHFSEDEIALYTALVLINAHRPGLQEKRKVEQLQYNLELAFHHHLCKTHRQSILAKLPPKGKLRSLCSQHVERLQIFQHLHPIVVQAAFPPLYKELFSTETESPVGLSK

[11] = biological target: T3, Nuclear receptor ROR-gamma (Homo sapiens, UniProt P51449); assay: as §1; assay type: cell-based
T3 sequence (P51449 whole entry): T2 sequence (whole entry)

[12] = Total clearance in rat at 0.5 mg/kg, iv; assay type: ADME, organism-based; settings: in vivo
[13] = AUC in rat at 1 mg/kg, po; assay type: ADME, organism-based; settings: in vivo
[14] = Stability in rat liver microsomes assessed as parent compound remaining after 2 hrs by LC-MS/MS analysis; assay type: ADME, microsome; settings: read-out: Stability
[15] = biological target: T4, Nuclear receptor ROR-gamma (Mus musculus) (UniProt P51450); assay: (§2) Transrepression of recombinant mouse GAL4-DBD fused RORgammat LBD expressed in HEK293 cells after 20 hrs by luciferase reporter gene assay; assay type: cell-based
T4 sequence (whole entry): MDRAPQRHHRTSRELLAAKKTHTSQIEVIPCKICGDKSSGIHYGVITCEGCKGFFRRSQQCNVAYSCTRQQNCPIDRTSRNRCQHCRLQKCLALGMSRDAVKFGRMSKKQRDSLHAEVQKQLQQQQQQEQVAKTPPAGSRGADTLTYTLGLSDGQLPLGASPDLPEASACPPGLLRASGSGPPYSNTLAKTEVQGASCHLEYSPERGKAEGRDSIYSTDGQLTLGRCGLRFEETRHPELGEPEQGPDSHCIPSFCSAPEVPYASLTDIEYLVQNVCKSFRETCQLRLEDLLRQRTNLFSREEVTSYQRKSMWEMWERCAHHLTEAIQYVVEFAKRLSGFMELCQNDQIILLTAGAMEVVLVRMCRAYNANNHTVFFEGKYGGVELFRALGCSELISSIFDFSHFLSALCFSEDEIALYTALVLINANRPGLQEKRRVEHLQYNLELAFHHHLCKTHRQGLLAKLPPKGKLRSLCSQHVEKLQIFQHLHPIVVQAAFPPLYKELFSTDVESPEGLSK

[16] = biological target: T5, Nuclear receptor ROR-gamma (Mus musculus, UniProt P51450); assay: as §2; assay type: cell-based
T5 sequence (P51450 whole entry): T4 sequence (whole entry)

[17] = biological target: T5, Nuclear receptor ROR-gamma; assay: Transrepression of RORgammat in anti-CD3/CD28 stimulated C57BL/6 mouse CD4-positive T cells assessed as suppression of T cell differentiation to Th17 cells by measuring reduction in IL-17A level after 4 days by ELISA
[18] = Oral bioavailability in rat at 1 mg/kg; assay type: ADME, organism-based; settings: in vivo
[19] = biological target: T6, Oxysterols receptor LXR-beta (Homo sapiens, UniProt P55055); assay: Transrepression of recombinant human GAL4-DBD fused LXRbeta LBD expressed in HEK293 cells after 20 hrs by luciferase reporter gene assay; assay type: cell-based
T6 sequence (P55055 whole entry): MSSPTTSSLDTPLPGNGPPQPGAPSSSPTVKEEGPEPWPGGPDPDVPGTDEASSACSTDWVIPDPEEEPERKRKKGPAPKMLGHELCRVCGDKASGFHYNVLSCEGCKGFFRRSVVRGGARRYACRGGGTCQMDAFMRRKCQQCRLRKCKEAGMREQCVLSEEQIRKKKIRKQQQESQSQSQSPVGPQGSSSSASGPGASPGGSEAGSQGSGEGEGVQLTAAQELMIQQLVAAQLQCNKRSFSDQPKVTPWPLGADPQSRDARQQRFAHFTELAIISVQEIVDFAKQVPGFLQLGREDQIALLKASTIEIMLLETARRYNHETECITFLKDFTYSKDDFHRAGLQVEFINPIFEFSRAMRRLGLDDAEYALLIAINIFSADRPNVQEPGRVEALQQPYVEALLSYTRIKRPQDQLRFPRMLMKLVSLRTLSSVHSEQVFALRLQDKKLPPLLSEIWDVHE

[20] = biological target: T3, Nuclear receptor ROR-gamma; assay: Displacement of [3H]-Digoxin from recombinant human GST-fused RORgammat LBD after 1 to 4 hrs by scintillation counting method

Row | Compound | Cmax [1] [ng/mL] | Vd [2] [L/kg] | IC50 [3] [nM] | half-life [4] [h] | solubility thermodynamic [5] [µM] | AUC [6] [ng·h/mL] | Tmax [7] [h] | remaining at 2 h [8] [%] | solubility thermodynamic [9] [µM] | Efficacy [10] [%] | IC50 [11] [nM] | clearance [12] [mL/min/kg] | AUC [13] [ng·h/mL] | remaining at 2 h [14] [%] | Efficacy [15] [%] | IC50 [16] [nM] | IC50 [17] [nM] | bioavailability [18] [%] | EC50 [19] [nM] | IC50 [20] [nM]
1 | CCS(=O)(=O)c1ccc(CC(=O)Nc2ccc(C(C)(C)C(=O)Nc3ccc(F)cc3F)c(F)c2)cc1 | 185 | 1.1 | > 10000 | 3.2 | 25 (≈ 13 µg/mL) | 1930 | 4 | 95 | 29 (≈ 15 µg/mL) | 100 | 29 | 4.33 | 2110 | 89 | 85 | 340 | 200 | 54.5 | > 30000 | < 30
2 | CCS(=O)(=O)c1ccc(CC(=O)Nc2ccc(C(C)(C)C(=O)Nc3ccc(F)cc3)c(F)c2)cc1 | 85.3 | 1.7 | > 10000 | 2.5 | 16 (≈ 8.01 µg/mL) | 986 | 2.5 | 63 | 26 (≈ 13 µg/mL) | 95 | 25 | 8.45 | 786 | 77 | 85 | 250 | 420 | 39.9 | > 30000 | < 30
3 | CCS(=O)(=O)c1ccc(CC(=O)Nc2ccc(C(C)(C)C(=O)Nc3cc(C#N)ccn3)c(F)c2)cc1 | 33.3 | 3.3 | > 10000 | 2.9 | 9 (≈ 4.58 µg/mL) | 556 | 1 | 82 | 30 (≈ 15.3 µg/mL) | 95 | 16 | 15 | 218 | 71 | 88 | 74 | 68 | 19.6 | > 30000 | < 30

Source: ChEMBL document CHEMBL4261613, “Discovery of a potent orally bioavailable retinoic acid receptor-related orphan receptor-gamma-t (RORγt) inhibitor, S18-000003” (Bioorg Med Chem Lett, 2018)
